Assays:
GSPT1 = experiment: Western blot, degradation of substrate protein in hPBMCs; assay type: cell-based, Human
[1] = test system: Human breast cancer cell (MCF-7); experiment: Tumor cell proliferation inhibition (CellTiter-Meiluncell luminescent cell viability assay); conditions: MCF7, 96 h; for inhibition at 0.01 µM: read-out: Inhibition Rate at 10 nM (%); for inhibition at 0.5 µM: read-out: Inhibition Rate at 500 nM (%)
Method: The tumor cells used herein were cultured in a cell culture medium listed in table 2 at 37°C in an incubator with 5% CO2. Prior to experimentation, all cell lines used were correctly identified by STR profiling, and tested negative for mycoplasma contamination using a mycoplasma detection kit through routine screenings.
The IC50 values of the compounds of the present disclosure (including the compounds in Table 1 and Examples) were determined using the CellTiter-Meiluncell Luminescent Cell Viability Assay Kit from Dalian Meilun Biotech Co., Ltd. The detailed procedure is as follows: Tumor cells were seeded in 96-well cell culture plates at the densities specified in Table 3. On the following day, the test compounds of the present disclosure were subjected to serial dilution. The dilution can be performed according to one of the following two methods: • (1) The first dilution method: The test compounds of the present disclosure (including the compounds in Table 1 and Examples) were subjected to 5-fold serial dilutions starting from a highest concentration of 2000 µM, resulting in a total of 9 concentrations from high to low (2000, 400, 80, 16, 3.2, 0.64, 0.128, 0.0256, 0.00512 µM). Subsequently, 0.5 µL of the test compound dilution was transferred into the 96-well plate containing the cells, with each well containing 100 µL of cell culture medium. […] Into the 96-well plate, the diluted test compounds and corresponding detection reagents were added, resulting in final test compound concentrations of 500 nM and 10 nM, respectively. The experimental procedure is described below using the diluted 2 µM test compound as an example.
0.5 µL of the aforementioned diluted compound of the present disclosure (including the compounds in Table 1 and Examples) was added to the seeded cells in 100 µL of medium, yielding a final test compound concentration of 10 nM. After the cells were treated with the compounds of the present disclosure for a specified period, the cell viability assay reagent was added to the culture medium according to the kit's instructions to determine cell viability. […] All controls were treated using the same procedure as the compounds of the present disclosure. The growth inhibition curves for the compounds of the present disclosure were plotted using Prism GraphPad software, and the IC50 values were calculated therefrom.

[2] = biological target: T1, human Cereblon WT GST-tagged protein (Homo sapiens, UniProt Q96SW2); experiment: CRBN-binding affinity, HTRF (CEREBLON BINDING kit); conditions: for inhibition at 0.5 µM: read-out: Inhibition Rate at 0.5 µM (%); for inhibition at 2 µM: read-out: Inhibition Rate at 2 µM (%)
T1 construct: purchased CISBIO 64BDCRBNPEH

WEE1 = biological target: T2, WEE1 (Homo sapiens, UniProt P30291+Q96SW2); experiment: Western blot, degradation of substrate protein in hPBMCs; assay type: cell-based
T2 construct: effects of the compounds of the present disclosure on the expression of target proteins in cells; endogenous in cells; host or cells: human PBMCs (Milecell Biotechnologies)

IKZF3 = biological target: T3, IKZF3 (Homo sapiens, UniProt Q96SW2+Q9UKT9); experiment: as above; assay type: cell-based
T3 construct: effects of the compounds of the present disclosure on the expression of target proteins in cells; endogenous in cells; host or cells: human PBMCs (Milecell Biotechnologies)

CK1α = biological target: T4, CK1α (Homo sapiens, UniProt P48729+Q96SW2); experiment: as above; assay type: cell-based
T4 construct: effects of the compounds of the present disclosure on the expression of target proteins in cells; endogenous in cells; host or cells: human PBMCs (Milecell Biotechnologies)

IKZF1 = biological target: T5, IKZF1 (Homo sapiens, UniProt Q13422+Q96SW2); experiment: as above; assay type: cell-based
T5 construct: effects of the compounds of the present disclosure on the expression of target proteins in cells; endogenous in cells; host or cells: human PBMCs (Milecell Biotechnologies)

IKZF2 = biological target: T6, IKZF2 (Homo sapiens, UniProt Q96SW2+Q9UKS7); experiment: as above; assay type: cell-based
T6 construct: effects of the compounds of the present disclosure on the expression of target proteins in cells; endogenous in cells; host or cells: human PBMCs (Milecell Biotechnologies)

[3] = test system: Human multiple myeloma cell (MM.1S); experiment: Tumor cell proliferation inhibition (CellTiter-Meiluncell luminescent cell viability assay); conditions: Homo sapiens, MM1.S, 96 h; for inhibition at 0.01 µM: read-out: Inhibition Rate at 10 nM (%); for inhibition at 0.5 µM: read-out: Inhibition Rate at 500 nM (%)
[4] = Western blot, 24 hours of compound treatment, compounds tested at 50 nM and 500 nM (concentration for the table not stated)
[5] = 24 hours treatment, compounds at 50 nM and 500 nM (concentration behind the class not stated)

T1 sequence (Q96SW2 whole entry): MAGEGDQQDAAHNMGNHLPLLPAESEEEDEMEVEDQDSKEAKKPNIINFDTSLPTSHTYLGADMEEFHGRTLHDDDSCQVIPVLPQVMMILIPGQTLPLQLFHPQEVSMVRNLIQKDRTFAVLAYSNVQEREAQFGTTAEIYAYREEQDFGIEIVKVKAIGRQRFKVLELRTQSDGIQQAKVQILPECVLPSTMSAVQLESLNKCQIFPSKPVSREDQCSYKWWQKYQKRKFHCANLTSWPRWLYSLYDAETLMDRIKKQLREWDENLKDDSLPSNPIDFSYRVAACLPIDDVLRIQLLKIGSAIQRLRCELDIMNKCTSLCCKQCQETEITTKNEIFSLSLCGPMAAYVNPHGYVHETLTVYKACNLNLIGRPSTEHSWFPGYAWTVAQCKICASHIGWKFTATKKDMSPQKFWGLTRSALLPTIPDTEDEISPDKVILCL
T2 sequence (P30291 whole entry): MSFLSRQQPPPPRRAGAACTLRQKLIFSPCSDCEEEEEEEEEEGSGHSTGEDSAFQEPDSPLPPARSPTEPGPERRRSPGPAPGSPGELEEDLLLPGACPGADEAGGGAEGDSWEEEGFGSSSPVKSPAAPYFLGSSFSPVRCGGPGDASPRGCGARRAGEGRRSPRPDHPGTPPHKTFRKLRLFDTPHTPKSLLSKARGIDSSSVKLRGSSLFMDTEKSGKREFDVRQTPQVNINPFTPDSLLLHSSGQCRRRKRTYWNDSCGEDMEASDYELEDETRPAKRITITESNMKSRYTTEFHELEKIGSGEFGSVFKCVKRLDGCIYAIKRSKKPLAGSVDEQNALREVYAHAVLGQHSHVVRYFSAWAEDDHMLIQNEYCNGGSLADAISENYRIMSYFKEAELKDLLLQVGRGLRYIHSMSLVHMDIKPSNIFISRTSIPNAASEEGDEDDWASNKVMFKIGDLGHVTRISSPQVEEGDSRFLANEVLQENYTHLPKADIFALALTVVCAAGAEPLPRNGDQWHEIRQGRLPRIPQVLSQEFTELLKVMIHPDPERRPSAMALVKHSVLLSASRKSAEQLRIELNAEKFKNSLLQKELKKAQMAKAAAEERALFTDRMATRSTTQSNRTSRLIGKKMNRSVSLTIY
T2 sequence (Q96SW2 whole entry): as the sequence (Q96SW2 whole entry) above
T2 sequence (Q16531 whole entry partner): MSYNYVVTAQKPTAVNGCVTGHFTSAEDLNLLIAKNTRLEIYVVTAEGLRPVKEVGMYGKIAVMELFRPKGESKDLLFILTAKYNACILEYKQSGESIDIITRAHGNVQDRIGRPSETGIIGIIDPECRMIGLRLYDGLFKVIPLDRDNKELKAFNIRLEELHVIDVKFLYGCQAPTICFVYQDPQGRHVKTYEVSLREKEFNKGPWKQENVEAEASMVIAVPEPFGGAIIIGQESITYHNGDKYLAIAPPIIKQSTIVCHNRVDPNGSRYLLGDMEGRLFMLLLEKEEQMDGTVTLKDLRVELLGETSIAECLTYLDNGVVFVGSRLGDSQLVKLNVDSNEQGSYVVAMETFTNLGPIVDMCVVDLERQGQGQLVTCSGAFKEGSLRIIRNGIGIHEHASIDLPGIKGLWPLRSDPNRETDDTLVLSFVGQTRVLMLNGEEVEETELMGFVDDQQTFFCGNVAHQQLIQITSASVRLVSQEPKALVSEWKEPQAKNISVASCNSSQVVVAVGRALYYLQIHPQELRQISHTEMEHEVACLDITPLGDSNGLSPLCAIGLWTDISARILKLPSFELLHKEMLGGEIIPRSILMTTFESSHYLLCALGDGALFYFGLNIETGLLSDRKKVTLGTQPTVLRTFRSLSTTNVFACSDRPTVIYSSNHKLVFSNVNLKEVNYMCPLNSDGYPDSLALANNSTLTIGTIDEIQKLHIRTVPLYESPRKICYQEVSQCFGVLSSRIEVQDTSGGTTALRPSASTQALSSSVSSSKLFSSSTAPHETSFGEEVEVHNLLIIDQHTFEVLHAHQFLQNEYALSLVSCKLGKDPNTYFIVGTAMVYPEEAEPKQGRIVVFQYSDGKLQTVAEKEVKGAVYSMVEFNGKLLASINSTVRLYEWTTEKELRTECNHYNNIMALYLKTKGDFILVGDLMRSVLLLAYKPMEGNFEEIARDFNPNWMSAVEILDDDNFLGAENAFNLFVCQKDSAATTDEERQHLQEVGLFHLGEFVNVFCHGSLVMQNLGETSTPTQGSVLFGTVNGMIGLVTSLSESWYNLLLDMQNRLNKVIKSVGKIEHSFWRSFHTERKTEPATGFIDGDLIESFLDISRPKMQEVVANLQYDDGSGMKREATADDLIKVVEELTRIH
T5 sequence (Q13422 whole entry): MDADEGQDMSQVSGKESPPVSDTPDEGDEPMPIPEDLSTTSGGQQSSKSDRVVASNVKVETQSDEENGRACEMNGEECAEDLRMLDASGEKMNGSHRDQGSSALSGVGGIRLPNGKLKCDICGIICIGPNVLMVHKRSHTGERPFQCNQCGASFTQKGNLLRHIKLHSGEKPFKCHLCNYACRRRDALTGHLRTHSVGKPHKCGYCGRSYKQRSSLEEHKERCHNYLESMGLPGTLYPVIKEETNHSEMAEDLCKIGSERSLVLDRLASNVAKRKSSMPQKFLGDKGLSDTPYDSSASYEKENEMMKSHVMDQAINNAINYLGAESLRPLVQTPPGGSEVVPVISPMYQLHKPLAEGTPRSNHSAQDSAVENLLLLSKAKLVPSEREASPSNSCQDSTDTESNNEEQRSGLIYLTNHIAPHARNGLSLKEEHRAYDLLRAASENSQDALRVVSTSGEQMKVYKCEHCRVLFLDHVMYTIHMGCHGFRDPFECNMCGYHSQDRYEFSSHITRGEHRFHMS
T5 sequence (Q96SW2 whole entry): as the sequence (Q96SW2 whole entry) above
T5 sequence (Q16531 whole entry partner): as the sequence (Q16531 whole entry partner) above
T3 sequence (Q9UKT9 whole entry): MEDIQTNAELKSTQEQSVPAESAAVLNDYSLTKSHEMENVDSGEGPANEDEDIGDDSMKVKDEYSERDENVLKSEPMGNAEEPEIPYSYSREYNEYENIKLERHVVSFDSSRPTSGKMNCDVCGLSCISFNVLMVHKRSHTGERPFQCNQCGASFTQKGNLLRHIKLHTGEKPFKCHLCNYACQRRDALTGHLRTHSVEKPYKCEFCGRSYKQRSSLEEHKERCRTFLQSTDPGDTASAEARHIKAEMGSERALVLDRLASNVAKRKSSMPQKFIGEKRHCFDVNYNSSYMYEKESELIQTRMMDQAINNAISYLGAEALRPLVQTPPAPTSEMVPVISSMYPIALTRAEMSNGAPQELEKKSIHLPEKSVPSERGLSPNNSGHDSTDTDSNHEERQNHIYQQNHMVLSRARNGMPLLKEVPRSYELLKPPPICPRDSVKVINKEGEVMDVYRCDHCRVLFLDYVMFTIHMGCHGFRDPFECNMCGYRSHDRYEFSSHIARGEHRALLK
T3 sequence (Q96SW2 whole entry): as the sequence (Q96SW2 whole entry) above
T3 sequence (Q16531 whole entry partner): as the sequence (Q16531 whole entry partner) above
T6 sequence (Q9UKS7 whole entry): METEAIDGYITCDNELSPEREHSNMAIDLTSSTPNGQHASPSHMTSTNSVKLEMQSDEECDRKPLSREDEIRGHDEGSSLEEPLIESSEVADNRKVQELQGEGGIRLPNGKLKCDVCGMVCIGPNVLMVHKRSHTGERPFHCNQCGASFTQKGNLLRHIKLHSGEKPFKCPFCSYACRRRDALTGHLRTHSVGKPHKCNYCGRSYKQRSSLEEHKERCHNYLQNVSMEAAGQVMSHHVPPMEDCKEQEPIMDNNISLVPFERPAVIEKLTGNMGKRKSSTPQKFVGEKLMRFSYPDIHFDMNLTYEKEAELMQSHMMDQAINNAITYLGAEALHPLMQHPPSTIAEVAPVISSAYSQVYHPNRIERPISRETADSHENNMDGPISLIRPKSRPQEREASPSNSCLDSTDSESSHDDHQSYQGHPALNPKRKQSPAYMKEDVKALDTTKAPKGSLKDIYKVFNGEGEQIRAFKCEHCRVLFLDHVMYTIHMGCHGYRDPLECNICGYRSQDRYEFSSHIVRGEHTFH
T6 sequence (Q96SW2 whole entry): as the sequence (Q96SW2 whole entry) above
T6 sequence (Q16531 whole entry partner): as the sequence (Q16531 whole entry partner) above
T4 sequence (P48729 whole entry): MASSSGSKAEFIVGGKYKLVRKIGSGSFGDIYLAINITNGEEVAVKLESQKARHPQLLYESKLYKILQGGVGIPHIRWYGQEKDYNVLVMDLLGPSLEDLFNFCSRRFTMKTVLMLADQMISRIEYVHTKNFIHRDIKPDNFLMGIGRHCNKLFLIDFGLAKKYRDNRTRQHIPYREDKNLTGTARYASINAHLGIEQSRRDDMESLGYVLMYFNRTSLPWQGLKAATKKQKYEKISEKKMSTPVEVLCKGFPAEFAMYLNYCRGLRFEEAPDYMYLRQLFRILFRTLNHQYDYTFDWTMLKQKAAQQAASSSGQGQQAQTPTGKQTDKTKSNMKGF
T4 sequence (Q96SW2 whole entry): as the sequence (Q96SW2 whole entry) above
T4 sequence (Q16531 whole entry partner): as the sequence (Q16531 whole entry partner) above

SMILES	GSPT1 substrate protein remaining % (GSPT1; [4])	inhibition at 0.01 µM [1] [%]	inhibition at 0.5 µM [1] [%]	inhibition at 0.5 µM [2] [%]	inhibition at 2 µM [2] [%]	Wee1 substrate protein remaining % (WEE1; [4])	IKZF3 substrate protein remaining % (IKZF3; [4])	CK1α substrate protein remaining % (CK1α; [4])	IKZF 1 substrate protein remaining % (IKZF1; [4])	IKZF2 substrate protein remaining % (IKZF2; [4])	inhibition at 0.01 µM [3] [%]	inhibition at 0.5 µM [3] [%]	GSPT1 substrate protein remaining % (GSPT1; [5])	Wee1 substrate protein remaining % (WEE1; [5])	IKZF3 substrate protein remaining % (IKZF3; [5])	CK1α substrate protein remaining % (CK1α; [5])	IKZF 1 substrate protein remaining % (IKZF1; [5])	IKZF2 substrate protein remaining % (IKZF2; [5])
O=C1CCC(N2Cc3c(CN4CCC(N5CCc6cc(F)ccc65)CC4)cccc3C2=S)C(=O)N1 (stereo not drawn) [GT-08845, 3-(4-((4-(5-fluoroindolin-1-yl)piperidin-1-yl)methyl)-1-thioxoisoindolin-2-yl)piperidine-2,6-dione]	A (0% ≤ substrate protein remaining % ≤ 80%)	50 to 60	60 to 70	40 to 53	80 to 100	A (0% ≤ substrate protein remaining % ≤ 80%)	B (80%< substrate protein remaining %≤ 100%)	B (80%< substrate protein remaining %≤ 100%)	B (80%< substrate protein remaining %≤ 100%)	B (80%< substrate protein remaining %≤ 100%)	20 to 30	40 to 50	–	–	–	–	–	–
O=C1CCC(N2Cc3c(CN4CCC(N5C(=O)COc6cc(F)ccc65)CC4)cccc3C2=S)C(=O)N1 (stereo not drawn) [GT-08853, 3-(4-((4-(7-fluoro-3-oxo-2,3-dihydro-4H-benzo[b][1,4]oxazin-4-yl)piperidin-1-yl)methyl)-1-thioxoisoindolin-2-yl)piperidine-2,6-dione]	–	5 to 10	40 to 50	60 to 80	80 to 100	–	–	–	–	–	30 to 40	40 to 50	B (80%< substrate protein remaining %≤ 100%)	B (80%< substrate protein remaining %≤ 100%)	A (0% ≤ substrate protein remaining % ≤ 80%)	B (80%< substrate protein remaining %≤ 100%)	B (80%< substrate protein remaining %≤ 100%)	B (80%< substrate protein remaining %≤ 100%)
O=C1CCC(N2Cc3c(CN4CCN(c5ncnc6scc(-c7ccccc7)c56)CC4)cccc3C2=S)C(=O)N1 (stereo not drawn) [GT-08920, 3-(4-((4-(5-phenylthieno[2,3-d]pyrimidin-4-yl)piperazin-1-yl)methyl)-1-thioxoisoindolin-2-yl)piperidine-2,6-dione]	–	50 to 60	30 to 40	40 to 53	80 to 100	–	–	–	–	–	30 to 40	40 to 50	–	–	–	–	–	–
Cc1nc(N2CCN(Cc3cccc4c3CN(C3CCC(=O)NC3=O)C4=S)CC2)c2c3c(sc2n1)CCCC3 (stereo not drawn) [GT-08923, 3-(4-((4-(2-methyl-5,6,7,8-tetrahydrobenzo[4,5]thieno[2,3-d]pyrimidin-4-yl)piperazin-1-yl)methyl)-1-thioxoisoindolin-2-yl)piperidine-2,6-dione]	–	70 to 80	70 to 80	30 to 40	80 to 100	–	–	–	–	–	–	–	B (80%< substrate protein remaining %≤ 100%)	A (0% ≤ substrate protein remaining % ≤ 80%)	B (80%< substrate protein remaining %≤ 100%)	B (80%< substrate protein remaining %≤ 100%)	B (80%< substrate protein remaining %≤ 100%)	B (80%< substrate protein remaining %≤ 100%)
O=C1CCC(N2Cc3c(CN4CCN(c5ncnc6sc7c(c56)CCC7)CC4)cccc3C2=S)C(=O)N1 (stereo not drawn) [GT-08925, 3-(4-((4-(6,7-dihydro-5H-cyclopenta[4,5]thieno[2,3-d]pyrimidin-4-yl)piperazin-1-yl)methyl)-1-thioxoisoindolin-2-yl)piperidine-2,6-dione]	–	60 to 70	60 to 70	60 to 80	80 to 100	–	–	–	–	–	–	–	B (80%< substrate protein remaining %≤ 100%)	A (0% ≤ substrate protein remaining % ≤ 80%)	A (0% ≤ substrate protein remaining % ≤ 80%)	B (80%< substrate protein remaining %≤ 100%)	B (80%< substrate protein remaining %≤ 100%)	A (0% ≤ substrate protein remaining % ≤ 80%)
O=C1CCC(N2Cc3c(CN4CCC(c5ncnc6sccc56)CC4)cccc3C2=S)C(=O)N1 (stereo not drawn) [GT-08928, 3-(4-((4-(thieno[2,3-d]pyrimidin-4-yl)piperidin-1-yl)methyl)-1-thioxoisoindolin-2-yl)piperidine-2,6-dione]	–	40 to 50	60 to 70	60 to 80	80 to 100	–	–	–	–	–	–	–	B (80%< substrate protein remaining %≤ 100%)	A (0% ≤ substrate protein remaining % ≤ 80%)	B (80%< substrate protein remaining %≤ 100%)	B (80%< substrate protein remaining %≤ 100%)	B (80%< substrate protein remaining %≤ 100%)	B (80%< substrate protein remaining %≤ 100%)
O=C1CCC(N2Cc3c(CN4CCC(c5ncnc6sc7c(c56)CCC7)CC4)cccc3C2=S)C(=O)N1 (stereo not drawn) [GT-08934, 3-(4-((4-(6,7-dihydro-5H-cyclopenta[4,5]thieno[2,3-d]pyrimidin-4-yl)piperidin-1-yl)methyl)-1-thioxoisoindolin-2-yl)piperidine-2,6-dione]	–	30 to 40	40 to 50	40 to 53	53 to 60	–	–	–	–	–	–	–	A (0% ≤ substrate protein remaining % ≤ 80%)	A (0% ≤ substrate protein remaining % ≤ 80%)	A (0% ≤ substrate protein remaining % ≤ 80%)	B (80%< substrate protein remaining %≤ 100%)	A (0% ≤ substrate protein remaining % ≤ 80%)	B (80%< substrate protein remaining %≤ 100%)
O=C1CCC(N2Cc3c(CN4CC=C(c5ncnc6sccc56)CC4)cccc3C2=S)C(=O)N1 (stereo not drawn) [GT-08937, 3-(4-((4-(thieno[2,3-d]pyrimidin-4-yl)-3,6-dihydropyridin-1(2H)-yl)methyl)-1-thioxoisoindolin-2-yl)piperidine-2,6-dione]	–	30 to 40	40 to 50	60 to 80	80 to 100	–	–	–	–	–	–	–	A (0% ≤ substrate protein remaining % ≤ 80%)	A (0% ≤ substrate protein remaining % ≤ 80%)	B (80%< substrate protein remaining %≤ 100%)	B (80%< substrate protein remaining %≤ 100%)	B (80%< substrate protein remaining %≤ 100%)	B (80%< substrate protein remaining %≤ 100%)
O=C1CCC(N2Cc3cc(CN4CCN(c5nc(N6CCOCC6)nc6c5SCC6)CC4)ccc3C2=S)C(=O)N1 (stereo not drawn) [GT-09329, 3-(5-((4-(2-morpholino-6,7-dihydrothieno[3,2-d]pyrimidin-4-yl)piperazin-1-yl)methyl)-1-thioxoisoindolin-2-yl)piperidine-2,6-dione]	–	20 to 30	40 to 50	60 to 80	80 to 100	–	–	–	–	–	–	–	A (0% ≤ substrate protein remaining % ≤ 80%)	B (80%< substrate protein remaining %≤ 100%)	B (80%< substrate protein remaining %≤ 100%)	B (80%< substrate protein remaining %≤ 100%)	B (80%< substrate protein remaining %≤ 100%)	A (0% ≤ substrate protein remaining % ≤ 80%)

— EP4745135A1 (Gluetacs Therapeutics (Shanghai) Co., Ltd., priority 2023, dated 2025)
